Data from ChEMBL document CHEMBL3875145, “Highly potent anti-leishmanial derivatives of hederagenin, a triperpenoid from Sapindus saponaria L” (Eur J Med Chem, 2016).

Test system: Leishmania infantum
Assay: Antiparasitic activity against Leishmania infantum MHOM/BR/70/BH46 promastigotes infected in dog DH82 cells at 1000 uM after 48 hrs by ELISA method
Assay type: functional
Conditions: MHOM/BR/70/BH46, DH82, 48 h

CC1(C)CC[C@]2(C(=O)OCc3ccccc3)CC[C@]3(C)C(=CC[C@@H]4[C@@]5(C)CC[C@H](O)[C@@](C)(CO)[C@@H]5CC[C@]43C)[C@@H]2C1
inhibition at 1000 µM: 30.2%

CC1(C)CC[C@]2(C(=O)OCc3ccccc3[N+](=O)[O-])CC[C@]3(C)C(=CC[C@@H]4[C@@]5(C)CC[C@H](O)[C@@](C)(CO)[C@@H]5CC[C@]43C)[C@@H]2C1
inhibition at 1000 µM: 71.7%

CC1(C)CC[C@]2(C(=O)OCc3ccccc3Br)CC[C@]3(C)C(=CC[C@@H]4[C@@]5(C)CC[C@H](O)[C@@](C)(CO)[C@@H]5CC[C@]43C)[C@@H]2C1
inhibition at 1000 µM: 40%

CC1(C)CC[C@]2(C(=O)OCc3ccccc3F)CC[C@]3(C)C(=CC[C@@H]4[C@@]5(C)CC[C@H](O)[C@@](C)(CO)[C@@H]5CC[C@]43C)[C@@H]2C1
inhibition at 1000 µM: 26%

CC1(C)CC[C@]2(C(=O)OCc3ccc(F)cc3F)CC[C@]3(C)C(=CC[C@@H]4[C@@]5(C)CC[C@H](O)[C@@](C)(CO)[C@@H]5CC[C@]43C)[C@@H]2C1
inhibition at 1000 µM: 16%

CC1(C)CC[C@]2(C(=O)OCc3c(F)cccc3F)CC[C@]3(C)C(=CC[C@@H]4[C@@]5(C)CC[C@H](O)[C@@](C)(CO)[C@@H]5CC[C@]43C)[C@@H]2C1
inhibition at 1000 µM: 25.2%

CC1(C)CC[C@]2(C(=O)OCc3ccccc3Cl)CC[C@]3(C)C(=CC[C@@H]4[C@@]5(C)CC[C@H](O)[C@@](C)(CO)[C@@H]5CC[C@]43C)[C@@H]2C1
inhibition at 1000 µM: 15.8%

Cc1ccccc1COC(=O)[C@]12CCC(C)(C)C[C@H]1C1=CC[C@@H]3[C@@]4(C)CC[C@H](O)[C@@](C)(CO)[C@@H]4CC[C@@]3(C)[C@]1(C)CC2
inhibition at 1000 µM: 39%

CC1(C)CC[C@]2(C(=O)OCc3cccc(Cl)c3)CC[C@]3(C)C(=CC[C@@H]4[C@@]5(C)CC[C@H](O)[C@@](C)(CO)[C@@H]5CC[C@]43C)[C@@H]2C1
inhibition at 1000 µM: 23%

Cc1cccc(COC(=O)[C@]23CCC(C)(C)C[C@H]2C2=CC[C@@H]4[C@@]5(C)CC[C@H](O)[C@@](C)(CO)[C@@H]5CC[C@@]4(C)[C@]2(C)CC3)c1
inhibition at 1000 µM: 66%

C#CCOC(=O)[C@]12CCC(C)(C)C[C@H]1C1=CC[C@@H]3[C@@]4(C)CC[C@H](O)[C@@](C)(CO)[C@@H]4CC[C@@]3(C)[C@]1(C)CC2
inhibition at 1000 µM: 19%

CC1(C)CC[C@]2(C(=O)OCc3ccc([N+](=O)[O-])cc3)CC[C@]3(C)C(=CC[C@@H]4[C@@]5(C)CC[C@H](O)[C@@](C)(CO)[C@@H]5CC[C@]43C)[C@@H]2C1
inhibition at 1000 µM: 28%

Cc1ccc(COC(=O)[C@]23CCC(C)(C)C[C@H]2C2=CC[C@@H]4[C@@]5(C)CC[C@H](O)[C@@](C)(CO)[C@@H]5CC[C@@]4(C)[C@]2(C)CC3)cc1
inhibition at 1000 µM: 44%

CC1(C)CC[C@]2(C(=O)OCc3ccc(F)cc3)CC[C@]3(C)C(=CC[C@@H]4[C@@]5(C)CC[C@H](O)[C@@](C)(CO)[C@@H]5CC[C@]43C)[C@@H]2C1
inhibition at 1000 µM: 57%

CC1(C)CC[C@]2(C(=O)OCc3ccc(Cl)cc3)CC[C@]3(C)C(=CC[C@@H]4[C@@]5(C)CC[C@H](O)[C@@](C)(CO)[C@@H]5CC[C@]43C)[C@@H]2C1
inhibition at 1000 µM: 53%

CC1(C)CC[C@]2(C(=O)OCc3cccc(Br)c3)CC[C@]3(C)C(=CC[C@@H]4[C@@]5(C)CC[C@H](O)[C@@](C)(CO)[C@@H]5CC[C@]43C)[C@@H]2C1
inhibition at 1000 µM: 20%

CC1(C)CC[C@]2(C(=O)NCc3ccccc3)CC[C@]3(C)C(=CC[C@@H]4[C@@]5(C)CC[C@H](O)[C@@](C)(CO)[C@@H]5CC[C@]43C)[C@@H]2C1
inhibition at 1000 µM: 8.2%

CC1(C)CC[C@]2(C(=O)NCCN3CCCCC3)CC[C@]3(C)C(=CC[C@@H]4[C@@]5(C)CC[C@H](O)[C@@](C)(CO)[C@@H]5CC[C@]43C)[C@@H]2C1
inhibition at 1000 µM: 0%

CC1(C)CC[C@]2(C(=O)NCCN3CCCC3)CC[C@]3(C)C(=CC[C@@H]4[C@@]5(C)CC[C@H](O)[C@@](C)(CO)[C@@H]5CC[C@]43C)[C@@H]2C1
inhibition at 1000 µM: 0%

C#CCNC(=O)[C@]12CCC(C)(C)C[C@H]1C1=CC[C@@H]3[C@@]4(C)CC[C@H](O)[C@@](C)(CO)[C@@H]4CC[C@@]3(C)[C@]1(C)CC2
inhibition at 1000 µM: 15%

CC1(C)CC[C@]2(C(=O)NCCN3CCOCC3)CC[C@]3(C)C(=CC[C@@H]4[C@@]5(C)CC[C@H](O)[C@@](C)(CO)[C@@H]5CC[C@]43C)[C@@H]2C1
inhibition at 1000 µM: 7%

CC1(C)CC[C@]2(C(=O)OCc3cn(Cc4c(Cl)cccc4Cl)nn3)CC[C@]3(C)C(=CC[C@@H]4[C@@]5(C)CC[C@H](O)[C@@](C)(CO)[C@@H]5CC[C@]43C)[C@@H]2C1
inhibition at 1000 µM: 44.5%

CC1(C)CC[C@]2(C(=O)NCc3cn(Cc4ccccc4F)nn3)CC[C@]3(C)C(=CC[C@@H]4[C@@]5(C)CC[C@H](O)[C@@](C)(CO)[C@@H]5CC[C@]43C)[C@@H]2C1
inhibition at 1000 µM: 31%

CC1(C)CC[C@]2(C(=O)NCc3cn(Cc4c(Cl)cccc4Cl)nn3)CC[C@]3(C)C(=CC[C@@H]4[C@@]5(C)CC[C@H](O)[C@@](C)(CO)[C@@H]5CC[C@]43C)[C@@H]2C1
inhibition at 1000 µM: 41.7%

CC1(C)CC[C@]2(C(=O)NCc3cn(Cc4cccc(Br)c4)nn3)CC[C@]3(C)C(=CC[C@@H]4[C@@]5(C)CC[C@H](O)[C@@](C)(CO)[C@@H]5CC[C@]43C)[C@@H]2C1
inhibition at 1000 µM: 33.3%

CC1(C)CC[C@]2(C(=O)OCc3cn(Cc4ccccc4)nn3)CC[C@]3(C)C(=CC[C@@H]4[C@@]5(C)CC[C@H](O)[C@@](C)(CO)[C@@H]5CC[C@]43C)[C@@H]2C1
inhibition at 1000 µM: 23.5%

CC1(C)CC[C@]2(C(=O)OCc3cn(Cc4ccccc4F)nn3)CC[C@]3(C)C(=CC[C@@H]4[C@@]5(C)CC[C@H](O)[C@@](C)(CO)[C@@H]5CC[C@]43C)[C@@H]2C1
inhibition at 1000 µM: 48.3%

CC1(C)CC[C@]2(C(=O)OCc3cn(Cc4ccc(Br)cc4)nn3)CC[C@]3(C)C(=CC[C@@H]4[C@@]5(C)CC[C@H](O)[C@@](C)(CO)[C@@H]5CC[C@]43C)[C@@H]2C1
inhibition at 1000 µM: 27.7%

CC1(C)CC[C@]2(C(=O)OCc3cn(Cc4ccc([N+](=O)[O-])cc4)nn3)CC[C@]3(C)C(=CC[C@@H]4[C@@]5(C)CC[C@H](O)[C@@](C)(CO)[C@@H]5CC[C@]43C)[C@@H]2C1
inhibition at 1000 µM: 17%

CC1(C)CC[C@]2(C(=O)NCc3cn(Cc4cccc([N+](=O)[O-])c4)nn3)CC[C@]3(C)C(=CC[C@@H]4[C@@]5(C)CC[C@H](O)[C@@](C)(CO)[C@@H]5CC[C@]43C)[C@@H]2C1
inhibition at 1000 µM: 25.4%

CC1(C)CC[C@]2(C(=O)NCc3cn(Cc4ccc([N+](=O)[O-])cc4)nn3)CC[C@]3(C)C(=CC[C@@H]4[C@@]5(C)CC[C@H](O)[C@@](C)(CO)[C@@H]5CC[C@]43C)[C@@H]2C1
inhibition at 1000 µM: 14%

CC1(C)CC[C@]2(C(=O)NCc3cn(Cc4ccccc4Cl)nn3)CC[C@]3(C)C(=CC[C@@H]4[C@@]5(C)CC[C@H](O)[C@@](C)(CO)[C@@H]5CC[C@]43C)[C@@H]2C1
inhibition at 1000 µM: 0%

CC1(C)CC[C@]2(C(=O)NCc3cn(Cc4ccc(F)cc4)nn3)CC[C@]3(C)C(=CC[C@@H]4[C@@]5(C)CC[C@H](O)[C@@](C)(CO)[C@@H]5CC[C@]43C)[C@@H]2C1
inhibition at 1000 µM: 10.2%

CC1(C)CC[C@]2(C(=O)OCc3cn(Cc4ccccc4Cl)nn3)CC[C@]3(C)C(=CC[C@@H]4[C@@]5(C)CC[C@H](O)[C@@](C)(CO)[C@@H]5CC[C@]43C)[C@@H]2C1
inhibition at 1000 µM: 0%

CC1(C)CC[C@]2(C(=O)NCc3cn(Cc4cccc(Cl)c4)nn3)CC[C@]3(C)C(=CC[C@@H]4[C@@]5(C)CC[C@H](O)[C@@](C)(CO)[C@@H]5CC[C@]43C)[C@@H]2C1
inhibition at 1000 µM: 31.1%

CC1(C)CC[C@]2(C(=O)OCc3cn(Cc4c(F)cccc4F)nn3)CC[C@]3(C)C(=CC[C@@H]4[C@@]5(C)CC[C@H](O)[C@@](C)(CO)[C@@H]5CC[C@]43C)[C@@H]2C1
inhibition at 1000 µM: 34%

CC1(C)CC[C@]2(C(=O)OCc3cn(Cc4ccccc4Br)nn3)CC[C@]3(C)C(=CC[C@@H]4[C@@]5(C)CC[C@H](O)[C@@](C)(CO)[C@@H]5CC[C@]43C)[C@@H]2C1
inhibition at 1000 µM: 34.6%

CC1(C)CC[C@]2(C(=O)NCc3cn(Cc4ccccc4)nn3)CC[C@]3(C)C(=CC[C@@H]4[C@@]5(C)CC[C@H](O)[C@@](C)(CO)[C@@H]5CC[C@]43C)[C@@H]2C1
inhibition at 1000 µM: 11%

CC1(C)CC[C@]2(C(=O)OCc3cn(Cc4cccc(Cl)c4)nn3)CC[C@]3(C)C(=CC[C@@H]4[C@@]5(C)CC[C@H](O)[C@@](C)(CO)[C@@H]5CC[C@]43C)[C@@H]2C1
inhibition at 1000 µM: 51.3%

CC1(C)CC[C@]2(C(=O)OCc3cn(Cc4cccc([N+](=O)[O-])c4)nn3)CC[C@]3(C)C(=CC[C@@H]4[C@@]5(C)CC[C@H](O)[C@@](C)(CO)[C@@H]5CC[C@]43C)[C@@H]2C1
inhibition at 1000 µM: 26.3%

CC1(C)CC[C@]2(C(=O)OCc3cn(Cc4ccc(Cl)cc4)nn3)CC[C@]3(C)C(=CC[C@@H]4[C@@]5(C)CC[C@H](O)[C@@](C)(CO)[C@@H]5CC[C@]43C)[C@@H]2C1
inhibition at 1000 µM: 35%

CC1(C)CC[C@]2(C(=O)NCc3cn(Cc4ccccc4Br)nn3)CC[C@]3(C)C(=CC[C@@H]4[C@@]5(C)CC[C@H](O)[C@@](C)(CO)[C@@H]5CC[C@]43C)[C@@H]2C1
inhibition at 1000 µM: 4.2%

CC1(C)CC[C@]2(C(=O)OCc3cn(Cc4ccc(F)cc4)nn3)CC[C@]3(C)C(=CC[C@@H]4[C@@]5(C)CC[C@H](O)[C@@](C)(CO)[C@@H]5CC[C@]43C)[C@@H]2C1
inhibition at 1000 µM: 33.3%

CC1(C)CC[C@]2(C(=O)NCc3cn(Cc4ccc(Br)cc4)nn3)CC[C@]3(C)C(=CC[C@@H]4[C@@]5(C)CC[C@H](O)[C@@](C)(CO)[C@@H]5CC[C@]43C)[C@@H]2C1
inhibition at 1000 µM: 27%

COC(=O)C(NC(=O)[C@]12CCC(C)(C)C[C@H]1C1=CC[C@@H]3[C@@]4(C)CC[C@H](O)[C@@](C)(CO)[C@@H]4CC[C@@]3(C)[C@]1(C)CC2)c1ccccc1 (stereo partly specified)
inhibition at 1000 µM: 60%

CC1(C)CC[C@]2(C(=O)NC(Cc3c[nH]c4ccccc34)C(=O)O)CC[C@]3(C)C(=CC[C@@H]4[C@@]5(C)CC[C@H](O)[C@@](C)(CO)[C@@H]5CC[C@]43C)[C@@H]2C1 (stereo partly specified)
inhibition at 1000 µM: 50%
